Earlier results as cited in patent US20080242727A1, “DIETARY COMPOSITIONS CONTAINING ALPHA AMINO N-BUTYRATE AND METHODS OF ENHANCING LEAN BODY MASS” (priority 2007, published 2008).

Assays:
erythroid progenitors = conditions: in vivo or in culture
[1] = dose of as little as 3 g/day
rat liver proteolysis = conditions: out of 12 amino acids tested; only at concentrations much higher than physiological
[2] = test system: hearts perfused with buffer; conditions: for negative nitrogen balance: buffer with glucose and normal plasma levels of other amino acids, except BCAA
[3] = test system: protein synthesis in skeletal muscle; conditions: for protein synthesis in skeletal muscle of food-deprived rats: oral administration, vs saline-treated controls
[4] = test system: hemidiaphragms from fed or fasted rats; conditions: in vitro; for specific activity of muscle proteins (protein synthesis): [14C]lysine, with or without insulin

| Structure (SMILES) | negative nitrogen balance [2] | protein synthesis in skeletal muscle of food-deprived rats [3] | specific activity of muscle proteins (protein synthesis) [4] | other results |
| --- | --- | --- | --- | --- |
| CCC(N)C(=O)O (stereo not drawn) [ABA, alpha amino n-butyrate] | – | – | – | growth of erythroid progenitors (erythroid progenitors): stimulated the growth of all classes of erythroid progenitors |
| CC(C)(O)CC(=O)O [HMB, b-hydroxy b-methylbutyrate] | – | – | – | effect on catabolism, lean muscle mass and recuperation [1]: anti-catabolic, promotes lean muscle mass, and may speed recuperation |
| CC(C)C[C@H](N)C(=O)O [Leucine, L-Leucine] | decreased the negative nitrogen balance | stimulated protein synthesis | increased | inhibition of deprivation-induced rat liver proteolysis (rat liver proteolysis): strongest inhibitor; rate of protein synthesis as % of the rate of proteolysis ([2]; leucine concentrations giving maximal inhibition of protein degradation): 50%; protein synthesis / eIF4F formation ([3]; independently of increases in serum insulin): stimulated protein synthesis by enhancing eukaryotic initiation factor (eIF)4F formation; muscle synthesis after exercise ([3]; oral gavage to rats after exercise): stimulated muscle synthesis independent of increased plasma insulin; glucocorticoid-induced decreases in protein synthesis and mRNA translation ([3]; oral, rats): restored; protein degradation [4]: prohibited protein degradation |
| CC[C@H](C)[C@H](N)C(=O)O [isoleucine] | not | ineffective | inhibitory effects | – |
| CC(C)[C@H](N)C(=O)O [valine] | not | ineffective | no effect | – |
